{"source": "paper PMC4841036", "about": "“Synthesis and antimicrobial evaluation of two peptide LyeTx I derivatives modified with the chelating agent HYNIC for radiolabeling with technetium-99m” (The Journal of Venomous Animals and Toxins Including …, 2016)", "key": {"[1]": {"tested_on": "S. aureus (ATCC® 6538)", "test": "Microdilution test, MIC in TSB", "format": "cell-based, Staphylococcus aureus", "settings": "microdilution (CLSI) in TSB, 37 °C for 24 h, MIC = reduction of 100 % in bacterial growth, median (n = 3), each in duplicate, NI = no inhibition", "method": "(§1) The maintenance of the antimicrobial activity after peptide LyeTx I modifications with HYNIC was evaluated by microdilution test, according to the Clinical and Laboratory Standards Institute. Bacterial strains of reference, S. aureus (ATCC® 6538) and E. coli (ATCC® 10536), were grown on tryptic soy agar at 37 °C for 18 h. Then, 0.5 McFarland scale bacterial suspensions (10^8 CFU^.mL^−1) were prepared on tryptic soy broth (TSB). The readouts were carried by determination of minimum inhibitory concentration (MIC), defined as a reduction of 100 % in bacterial growth post-incubation with the peptide LyeTx I derivatives at 37 °C for 24 h. LyeTx I obtained by chemical synthesis and without the coupled chelating agent was used as treatment control. Only TSB (no bacterial suspension and no peptide) was used as negative control. TSB plus bacterial suspension (no peptide) were used as positive control. MIC was expressed as median (n = 3). Each replicate was performed with a different bacterial colony, in duplicate."}, "[2]": {"tested_on": "E. coli (ATCC® 10536)", "test": "Microdilution test, MIC in TSB", "format": "cell-based, Escherichia coli", "settings": "microdilution (CLSI) in TSB, 37 °C for 24 h, MIC = reduction of 100 % in bacterial growth, median (n = 3), each in duplicate, NI = no inhibition", "method": "as §1"}, "[3]": {"tested_on": "E. coli", "settings": "different assay conditions and other bacterial strains; cited from earlier work", "text": "(§2) However, different assay conditions and other bacterial strains were employed, which can explain the slight differences in the MIC obtained in this study. […] On the other hand, the peptide HYNIC-LyeTx I derivative (N- ..."}, "[4]": {"tested_on": "S. aureus", "settings": "different assay conditions and other bacterial strains; cited from earlier work", "text": "as §2"}}, "note": "Where no end group is shown, it is not given here.", "data": [{"substance": "IWLTALKFLGKNLGKHLAKQQLAKL-NH2 [LyeTx I]", "values": [{"measurement": "Minimum inhibitory concentration (MIC)", "setting": "[1]", "value": 5.52, "unit": "μmol^.L^−1"}, {"measurement": "Minimum inhibitory concentration (MIC)", "setting": "[2]", "value": 5.52, "unit": "μmol^.L^−1"}, {"measurement": "MIC", "setting": "[3]", "value": 7.81, "unit": "μmol^.L^−1"}, {"measurement": "MIC", "setting": "[4]", "value": 3.79, "unit": "μmol^.L^−1"}]}]}
